Results on 22 compounds are retold here after patent US7947694B2, “Substituted pyrazolo[3,4-D]pyrimidines as cell cycle kinase inhibitors” (Janssen Pharmaceutica NV, priority 2005, dated 2011).

Counter-ions that a name gives are not always drawn.

One series addresses T1, Aurora A (Homo sapiens, UniProt O14965).
T1 sequence (O14965 1-403): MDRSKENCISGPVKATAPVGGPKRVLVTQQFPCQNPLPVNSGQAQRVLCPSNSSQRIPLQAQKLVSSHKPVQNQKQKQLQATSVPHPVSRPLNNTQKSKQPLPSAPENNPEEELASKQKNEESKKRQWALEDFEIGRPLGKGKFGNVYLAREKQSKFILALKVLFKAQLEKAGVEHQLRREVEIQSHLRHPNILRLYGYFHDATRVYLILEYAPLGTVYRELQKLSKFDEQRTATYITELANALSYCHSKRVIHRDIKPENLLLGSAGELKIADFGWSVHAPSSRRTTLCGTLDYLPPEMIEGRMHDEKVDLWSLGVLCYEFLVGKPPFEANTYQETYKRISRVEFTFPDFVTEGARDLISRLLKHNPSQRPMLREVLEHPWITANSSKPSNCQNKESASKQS
The experiment in a line: In vitro filtration assay for AURORA A inhibitory activity. It is filed as biochemical. The following applies: 200 μM Kemptide substrate, [33P]-ATP, 1 μM unlabeled ATP, 25° C., 40 minutes; read-out: Aurora A see C.2 (pIC50) (converted). On the procedure: C.2. In Vitro Filtration Assay for AURORA A Inhibitory Activity
Compounds of the present invention were tested in an in vitro filtration assay assessing AURORA A activity by means of its substrate-phosphorylation activity using [^33P]-ATP as phosphor donor. The radioactive phosphorylated substrate is then captured on filtermats and the incorporated [^33P] quantitated using a phosphorage storage screen.
The Aurora-A kinase reaction is performed at 25° C. for 40 minutes in a 96-well microtiterplate. The 25 μl reaction volume contains 12 mM MOPS pH 7, 0.4 mM EDTA, 0.002% Brij35, 1% glycerol, 0.02% beta-mercapto-ethanol, 0.2 mg/ml BSA, 1 μM unlabeled ATP, 0.2 μCi [^33P]-ATP, 200 μM Kemptide, 3 ng Aurora A/well and 0.2% compound in 100% DMSO.
(§1) The reaction is stopped by adding 5 μl of a 3% phosphoric acid solution. 10 μl of the reaction mixture is then spotted onto a Filtermat P30 filter (Wallac) and washed 3 times for 5 min. in 75 mM phosphoric acid and 1 time for 5 min. in methanol prior to drying and quantification on the Typhoon (Amersham) using a phosphorage storage screen.
(§2) C.4. Calculation of pIC50 Values
(§3) For each experiment, controls (containing enzyme (complex) and DMSO without compound), a blank incubation (containing DMSO but no enzyme (complex) or compound) and samples (containing enzyme (complex) and compound dissolved in DMSO) were run in parallel. All compounds tested were dissolved and eventually further diluted in DMSO. […] In each test, the blank value was subtracted from both the control and the sample values. The control sample represented maximal enzyme activity. For each sample, the amount of cpm was expressed as a percentage of the mean cpm value of the controls. When appropriate, IC50-values (concentration of the drug, needed to reduce the enzyme activity to 50% of the control) were computed using linear interpolation between the experimental points just above and below the 50% level. Herein the effects of test compounds are expressed as pIC50 (the negative log value of the IC50-value).

In a further series the target is Aurora-B (Homo sapiens, UniProt Q96GD4). The experiment in a line: In vitro filtration assay for AURORA B inhibitory activity. In kind it is biochemical. The following applies: peptide (C(LRRWSLG)×4) substrate, [33P]-ATP, 1 μM unlabeled ATP, 25° C., 40 minutes; read-out: Aurora B see C.3 (pIC50) (converted). The method, then: C.3 In Vitro Filtration Assay for AURORA B Inhibitory Activity
Compounds of the present invention were tested in an in vitro filtration assay assessing AURORA B activity by means of its substrate-phosphorylation activity using [^33P]-ATP as phosphor donor. The radioactive phosphorylated substrate is then captured on filtermats and the incorporated [^33P] quantitated using a phosphorage storage screen.
The Aurora-B kinase reaction is performed at 25° C. for 40 minutes in a 96-well microtiterplate. The 25 μl reaction volume contains 60 mM Hepes pH 7.5, 3 mM MgCl2, 3 mM MnCl2, 3 μM Na3VO4, 50 μg/ml PEG20000, 1 μM unlabeled ATP, 1 mM DTT, 0.2 μCi AT^33P, 0.25 μg/well peptide (C(LRRWSLG)×4), 100 ng Aurora-B/well and 0.2% compound in 100% DMSO.
as §1, §2, §3

A further series concerns the target CDK4/cyclinD1 (Homo sapiens, UniProt P11802). The experiment in a line: In vitro filtration assay for CDK4 inhibitory activity. In kind it is biochemical. Conditions: GST-pRb phosphorylation, [33P]-ATP, 1 μM unlabeled ATP, 25° C., 45 minutes; read-out: cdk4 filter (pIC50) (converted). On the procedure: C.1. In Vitro Filtration Assay for CDK4 Inhibitory Activity
Compounds of the present invention were tested in an in vitro filtration assay assessing CDK4 activity by means of its pRb-phosphorylation activity using [^33P]-ATP as phosphor donor. The radioactive phosphorylated pRb is then captured on filtermats and the incorporated [^33P] quantitated using a phosphorage storage screen.
The CDK4 kinase reaction is performed at 25° C. for 45 minutes in a 96-well microtiterplate. The 25 μl reaction volume contains 50 mM Hepes pH 7.5, 10 mM NaF, 10 mM MgCl2, 1 mM Na3VO4, 1 μM unlabeled ATP, 1 mM DTT, 0.5 μCi AT^33P, 0.76 μg/well GST-pRb, 50 ng CDK4/cyclinD1/well and 0.2% compound in 100% DMSO.
as §1, §2, §3

Sequence of CDK4/cyclinD1 (P11802 whole entry, species assumed): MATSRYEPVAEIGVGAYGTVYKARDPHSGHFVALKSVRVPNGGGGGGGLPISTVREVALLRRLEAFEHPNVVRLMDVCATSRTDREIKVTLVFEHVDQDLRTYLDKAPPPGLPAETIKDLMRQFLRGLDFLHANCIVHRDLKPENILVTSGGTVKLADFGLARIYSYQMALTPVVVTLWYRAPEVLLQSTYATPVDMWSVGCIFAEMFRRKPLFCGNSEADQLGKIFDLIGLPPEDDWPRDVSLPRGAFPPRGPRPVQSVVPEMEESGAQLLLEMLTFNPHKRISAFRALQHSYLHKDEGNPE
Sequence of CDK4/cyclinD1 (P24385 whole entry partner, species assumed): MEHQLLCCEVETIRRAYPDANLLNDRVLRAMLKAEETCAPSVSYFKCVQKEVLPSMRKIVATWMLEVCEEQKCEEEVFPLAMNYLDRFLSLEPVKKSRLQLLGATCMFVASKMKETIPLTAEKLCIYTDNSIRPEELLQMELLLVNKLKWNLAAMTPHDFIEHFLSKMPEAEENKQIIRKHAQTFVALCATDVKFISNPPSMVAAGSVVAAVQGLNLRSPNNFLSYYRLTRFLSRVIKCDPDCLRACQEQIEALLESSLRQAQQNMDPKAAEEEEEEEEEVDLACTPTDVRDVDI
Sequence of Aurora-B (Q96GD4 whole entry): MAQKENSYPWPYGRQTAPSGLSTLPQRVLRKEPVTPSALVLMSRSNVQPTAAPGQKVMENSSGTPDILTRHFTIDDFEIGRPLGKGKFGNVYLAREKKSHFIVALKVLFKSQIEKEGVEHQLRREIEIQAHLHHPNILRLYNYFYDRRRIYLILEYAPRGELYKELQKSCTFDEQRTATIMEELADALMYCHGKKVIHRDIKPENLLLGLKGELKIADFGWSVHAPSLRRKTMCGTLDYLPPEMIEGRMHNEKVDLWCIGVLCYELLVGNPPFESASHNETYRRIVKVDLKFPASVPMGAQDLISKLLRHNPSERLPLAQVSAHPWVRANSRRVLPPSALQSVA

For orientation: melting point means the temperature, or range, at which the solid turns liquid. Turning to `COCCCNCc1ccc(Nc2ncc3cnn(C4CCCCC4)c3n2)cc1` (as salt: HCl) [Co. No. 2], the melting point lay within 212 to 214 °C.

Regarding `CCN(CC)CC(O)COc1ccc(Nc2ncc3cnn(C4CCCCC4)c3n2)cc1` (centres unmarked) [Co. No. 1], the IC50 at Aurora A was 1580 nM; at Aurora-B it was more than 10000 nM; on CDK4/cyclinD1, 7.94 nM.

Regarding `COCCCNCc1ccc(Nc2ncc3cnn(C4CCCCC4)c3n2)cc1` [Co. No. 2], the figures for the IC50 at Aurora A, on Aurora-B and at CDK4/cyclinD1 were 158 nM, more than 10000 nM and 6.31 nM, respectively.

In the case of `c1ncn(-c2ccc(Nc3ncc4cnn(C5CCCCC5)c4n3)cc2)n1` [Co. No. 3], the melting point lay within 222.5 to 224 °C. The IC50 on Aurora A was 126 nM. The IC50 on Aurora-B is 7940 nM. For the same compound, on CDK4/cyclinD1, the IC50 was 15.8 nM.

In the case of `c1ccc2c(c1)CC(NCc1ccc(Nc3ncc4cnn([C@H]5C[C@@H]6CC[C@H]5C6)c4n3)cc1)C2` [Co. No. 4], the values for the IC50 on Aurora A, on Aurora-B and on CDK4/cyclinD1 were 316 nM, 316 nM and 25.1 nM, respectively.

With `COCCCNS(=O)(=O)c1ccc(Nc2ncc3cnn(C4CCCCC4)c3n2)cc1` [Co. No. 5], the IC50 at Aurora A is 631 nM; at Aurora-B, more than 10000 nM; at CDK4/cyclinD1 it was 1260 nM.

Regarding `CCN(CC)CCNC(=O)c1ccc(Nc2ncc3cnn(C4CCCCC4)c3n2)cc1` [Co. No. 6], the IC50 at Aurora A was 1580 nM; on Aurora-B it was more than 10000 nM; at CDK4/cyclinD1 it was 25.1 nM.

Regarding `CCN(CC)CCCOc1ccc(Nc2ncc3cnn(C4CCCCC4)c3n2)cc1` [Co. No. 7], the IC50 on Aurora A is more than 10000 nM; on Aurora-B, more than 10000 nM; at CDK4/cyclinD1 it was 20 nM.

Take `COCCCN(Cc1ccc(Nc2ncc3cnn(C4CCCCC4)c3n2)cc1)C(=O)OC(C)(C)C` [Co. No. 8]: the results for the IC50 at Aurora A, at Aurora-B and on CDK4/cyclinD1 were 631 nM, more than 10000 nM and 1000 nM, respectively.

As to `COCCCNCc1ccc(Nc2ncc3cnn([C@H]4C[C@@H]5CC[C@H]4C5)c3n2)cc1` [Co. No. 9], the IC50 on Aurora A is 251 nM; at Aurora-B, 158 nM; on CDK4/cyclinD1, 79.4 nM.

With `COCCCNCc1ccc(Nc2ncc3cnn([C@H]4C[C@@H]5CC[C@H]4C5)c3n2)cc1` [Co. No. 10], the IC50 was 200 nM on Aurora A, 200 nM at Aurora-B and 31.6 nM at CDK4/cyclinD1.

Regarding `COCCCN(Cc1ccc(Nc2ncc3cnn([C@H]4C[C@@H]5CC[C@H]4C5)c3n2)cc1)C(=O)OC(C)(C)C` [Co. No. 11], the IC50 on Aurora A was 794 nM; on Aurora-B it was 5010 nM; at CDK4/cyclinD1, 2000 nM.

`COCCCNCc1ccc(Nc2ncc3cnn(C4CCOCC4)c3n2)cc1` [Co. No. 12]: the figures for the IC50 on Aurora A, at Aurora-B and on CDK4/cyclinD1 were 3980 nM, 7940 nM and 631 nM, respectively.

In the case of `COCCCN(Cc1ccc(Nc2ncc3cnn(C4CCOCC4)c3n2)cc1)C(=O)OC(C)(C)C` [Co. No. 13], the IC50 on Aurora A is 100 nM; on Aurora-B, 794 nM; at CDK4/cyclinD1, 2000 nM.

As for `c1cc2cc(Nc3ncc4cnn(C5CCCCC5)c4n3)ccc2[nH]1` [Co. No. 14], the IC50 on Aurora A is 316 nM; at Aurora-B, 7940 nM; on CDK4/cyclinD1, 158 nM.

With `CC(C)(C)OC(=O)N(Cc1ccc(Nc2ncc3cnn(C4CCCCC4)c3n2)cc1)C1Cc2ccccc2C1` [Co. No. 15], the IC50 was 1000 nM at Aurora A, more than 10000 nM at Aurora-B and more than 10000 nM on CDK4/cyclinD1.

With `c1ccc2c(c1)CC(NCc1ccc(Nc3ncc4cnn(C5CCCCC5)c4n3)cc1)C2` [Co. No. 16], the IC50 at Aurora A is 251 nM; on Aurora-B, 7940 nM; at CDK4/cyclinD1 it was 12.6 nM.

Consider `O=C(NC1Cc2ccccc2C1)c1ccc(Nc2ncc3cnn(C4CCCCC4)c3n2)cc1` [Co. No. 17], for which the IC50 on Aurora A is 316 nM; at Aurora-B it was 501 nM; at CDK4/cyclinD1, 63.1 nM.

As to `c1ccc2c(c1)CC(NCc1ccc(Nc3ncc4cnn(C5CCOCC5)c4n3)cc1)C2` [Co. No. 18], the IC50 on Aurora A is 3160 nM; at Aurora-B, 6310 nM; at CDK4/cyclinD1, 63.1 nM.

For `CC(C)(C)OC(=O)N(c1ccc(CN(C(=O)OC(C)(C)C)C2Cc3ccccc3C2)cc1)c1ncc2cnn([C@H]3C[C@@H]4CC[C@H]3C4)c2n1` [Co. No. 19], the IC50 at Aurora A was 158 nM; at Aurora-B it was 631 nM; on CDK4/cyclinD1, more than 10000 nM.

In the case of `CC(C)(C)OC(=O)N(Cc1ccc(Nc2ncc3cnn([C@H]4C[C@@H]5CC[C@H]4C5)c3n2)cc1)C1Cc2ccccc2C1` [Co. No. 20], the values for the IC50 at Aurora A, at Aurora-B and on CDK4/cyclinD1 were 6310 nM, more than 10000 nM and more than 10000 nM, respectively.

For `CN(C)CCOC(=O)c1ccc(Nc2ncc3cnn(C4CCCCC4)c3n2)cc1` [Co. No. 21], the figures for the IC50 at Aurora A, at Aurora-B and at CDK4/cyclinD1 were 631 nM, 7940 nM and 100 nM, respectively.
